Tests used:
[1] = target: ERBB2/HER2 (Homo sapiens, UniProt P04626); settings: 1 μM; Run 1, Run 2
[2] = target: JNK3 (Homo sapiens, UniProt P53779); settings: 1 μM; Run 1, Run 2
[3] = target: CYP2C19 (Homo sapiens, UniProt P33261); settings: read-out: CYP2C19 IC50; human liver microsomes
[4] = target: STK38L/NDR2 (Homo sapiens, UniProt Q9Y2H1); settings: 1 μM; Run 1, Run 2
[5] = target: P38b/MAPK11 (Homo sapiens, UniProt Q15759); assay: biochemical; settings: read-out: % enzyme activity, 1 μM; Run 1, Run 2
[6] = target: T1, CYP2C8 (Homo sapiens, UniProt P10632); assay: CYP inhibition assay; assay type: in vitro ADME; settings: human liver microsomes
T1 construct: tissue Corning 452117; host or cells: pooled human liver microsomes (UltraPool HLM 150, mixed gender)

[7] = target: TLK2 (Homo sapiens, UniProt Q86UE8); settings: 1 μM; Run 1, Run 2
[8] = target: T2, IKKe/IKBKE (Homo sapiens, UniProt Q14164); settings: 1 μM; Run 1, Run 2
T2 sequence (Q14164 1-716): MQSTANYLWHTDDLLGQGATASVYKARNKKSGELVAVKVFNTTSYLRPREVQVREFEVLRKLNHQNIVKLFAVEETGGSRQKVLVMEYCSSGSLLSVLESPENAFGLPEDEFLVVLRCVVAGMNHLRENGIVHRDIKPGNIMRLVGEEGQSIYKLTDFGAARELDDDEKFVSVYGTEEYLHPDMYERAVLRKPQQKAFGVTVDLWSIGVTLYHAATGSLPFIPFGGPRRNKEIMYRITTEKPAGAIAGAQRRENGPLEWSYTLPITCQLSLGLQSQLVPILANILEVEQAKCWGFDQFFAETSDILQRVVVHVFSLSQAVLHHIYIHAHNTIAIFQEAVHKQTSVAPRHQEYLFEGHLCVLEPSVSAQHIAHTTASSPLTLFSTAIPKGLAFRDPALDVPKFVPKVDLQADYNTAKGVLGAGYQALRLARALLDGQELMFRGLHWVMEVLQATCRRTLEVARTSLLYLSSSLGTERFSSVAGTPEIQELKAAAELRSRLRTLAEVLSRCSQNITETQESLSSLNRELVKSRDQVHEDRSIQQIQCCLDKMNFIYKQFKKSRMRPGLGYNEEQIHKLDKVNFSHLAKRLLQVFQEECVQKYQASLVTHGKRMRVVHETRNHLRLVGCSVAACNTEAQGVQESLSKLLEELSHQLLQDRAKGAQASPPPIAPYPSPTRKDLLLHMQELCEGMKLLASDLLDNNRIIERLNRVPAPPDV

[9] = target: T3, MASTL (Homo sapiens, UniProt Q96GX5); settings: 1 μM; Run 1, Run 2
T3 sequence (Q96GX5 1-879): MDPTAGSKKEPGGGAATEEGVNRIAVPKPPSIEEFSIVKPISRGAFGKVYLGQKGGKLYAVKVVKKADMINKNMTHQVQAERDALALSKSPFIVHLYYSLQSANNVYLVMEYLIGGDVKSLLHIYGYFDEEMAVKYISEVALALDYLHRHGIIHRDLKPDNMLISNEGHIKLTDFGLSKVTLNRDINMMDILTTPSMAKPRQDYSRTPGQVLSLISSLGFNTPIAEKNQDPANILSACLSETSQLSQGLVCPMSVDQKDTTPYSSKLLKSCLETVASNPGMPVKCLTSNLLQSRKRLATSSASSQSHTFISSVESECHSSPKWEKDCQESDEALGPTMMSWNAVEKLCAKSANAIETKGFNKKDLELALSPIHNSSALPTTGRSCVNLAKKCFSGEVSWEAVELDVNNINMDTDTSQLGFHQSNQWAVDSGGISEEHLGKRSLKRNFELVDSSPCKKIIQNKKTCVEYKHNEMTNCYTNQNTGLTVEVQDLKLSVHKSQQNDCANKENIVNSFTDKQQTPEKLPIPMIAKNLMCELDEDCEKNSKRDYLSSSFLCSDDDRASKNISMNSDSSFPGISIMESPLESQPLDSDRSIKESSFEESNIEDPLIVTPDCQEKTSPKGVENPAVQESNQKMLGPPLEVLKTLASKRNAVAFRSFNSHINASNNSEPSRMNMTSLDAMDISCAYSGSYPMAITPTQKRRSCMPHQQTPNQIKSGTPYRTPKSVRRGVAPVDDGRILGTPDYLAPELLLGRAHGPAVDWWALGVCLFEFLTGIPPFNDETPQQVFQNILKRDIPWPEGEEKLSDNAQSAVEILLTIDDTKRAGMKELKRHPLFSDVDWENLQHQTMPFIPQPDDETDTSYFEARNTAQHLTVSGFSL

[10] = target: T4, DYRK3 (Homo sapiens, UniProt O43781); assay: biochemical; settings: read-out: % enzyme activity, 1 μM; Run 1, Run 2
T4 sequence (O43781 1-588): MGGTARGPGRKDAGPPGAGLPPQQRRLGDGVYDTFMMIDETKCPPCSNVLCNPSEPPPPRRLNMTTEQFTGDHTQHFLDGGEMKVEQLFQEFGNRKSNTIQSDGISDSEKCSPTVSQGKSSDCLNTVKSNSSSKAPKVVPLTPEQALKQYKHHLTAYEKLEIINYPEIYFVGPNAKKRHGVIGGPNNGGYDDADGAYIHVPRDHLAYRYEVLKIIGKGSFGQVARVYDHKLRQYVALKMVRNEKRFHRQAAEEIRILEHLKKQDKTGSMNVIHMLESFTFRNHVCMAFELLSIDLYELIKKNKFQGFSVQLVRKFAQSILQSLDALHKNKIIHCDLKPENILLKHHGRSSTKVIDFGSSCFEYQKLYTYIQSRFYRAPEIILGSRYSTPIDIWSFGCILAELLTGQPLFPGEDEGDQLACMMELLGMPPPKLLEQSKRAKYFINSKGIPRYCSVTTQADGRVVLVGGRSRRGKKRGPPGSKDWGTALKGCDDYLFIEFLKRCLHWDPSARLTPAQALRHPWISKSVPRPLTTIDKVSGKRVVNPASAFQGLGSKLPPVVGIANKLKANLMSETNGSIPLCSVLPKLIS

[11] = target: RET (Homo sapiens, UniProt P07949); settings: 1 μM; Run 1, Run 2
[12] = target: HPK1/MAP4K1 (Homo sapiens, UniProt Q92918); assay: biochemical; settings: read-out: % enzyme activity, 1 μM; Run 1, Run 2

Chain of ERBB2/HER2 (P04626 23-1255): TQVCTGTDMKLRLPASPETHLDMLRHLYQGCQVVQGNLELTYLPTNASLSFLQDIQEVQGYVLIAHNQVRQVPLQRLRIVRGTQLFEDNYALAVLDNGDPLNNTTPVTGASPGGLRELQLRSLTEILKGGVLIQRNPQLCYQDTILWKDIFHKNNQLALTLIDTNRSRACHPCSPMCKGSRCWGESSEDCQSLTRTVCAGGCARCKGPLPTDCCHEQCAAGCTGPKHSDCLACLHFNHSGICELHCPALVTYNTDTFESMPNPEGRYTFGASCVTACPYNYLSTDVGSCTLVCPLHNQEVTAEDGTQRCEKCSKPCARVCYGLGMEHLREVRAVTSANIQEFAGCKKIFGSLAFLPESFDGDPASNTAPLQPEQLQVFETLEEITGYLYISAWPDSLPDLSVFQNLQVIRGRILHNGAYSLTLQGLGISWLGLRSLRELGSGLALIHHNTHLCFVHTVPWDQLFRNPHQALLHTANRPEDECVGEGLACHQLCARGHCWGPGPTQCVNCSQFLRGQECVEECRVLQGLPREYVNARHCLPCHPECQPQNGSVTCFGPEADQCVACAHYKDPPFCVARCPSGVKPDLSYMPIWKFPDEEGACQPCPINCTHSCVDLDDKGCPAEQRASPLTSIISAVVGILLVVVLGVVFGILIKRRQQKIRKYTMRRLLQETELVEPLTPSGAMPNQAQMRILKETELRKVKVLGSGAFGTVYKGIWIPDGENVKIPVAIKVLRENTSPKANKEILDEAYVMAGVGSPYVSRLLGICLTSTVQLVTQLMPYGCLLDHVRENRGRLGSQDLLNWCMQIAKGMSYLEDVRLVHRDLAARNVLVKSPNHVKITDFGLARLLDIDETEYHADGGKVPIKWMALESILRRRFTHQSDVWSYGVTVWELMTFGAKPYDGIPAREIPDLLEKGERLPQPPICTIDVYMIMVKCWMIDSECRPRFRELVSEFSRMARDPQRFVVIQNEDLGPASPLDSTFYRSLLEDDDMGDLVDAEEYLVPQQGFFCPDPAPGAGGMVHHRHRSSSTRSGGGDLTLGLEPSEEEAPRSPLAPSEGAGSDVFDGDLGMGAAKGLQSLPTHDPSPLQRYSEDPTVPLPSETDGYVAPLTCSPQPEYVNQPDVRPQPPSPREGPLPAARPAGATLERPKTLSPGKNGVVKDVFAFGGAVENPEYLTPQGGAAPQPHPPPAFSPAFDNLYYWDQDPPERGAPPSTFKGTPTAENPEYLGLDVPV
Chain of RET (P07949 29-1114): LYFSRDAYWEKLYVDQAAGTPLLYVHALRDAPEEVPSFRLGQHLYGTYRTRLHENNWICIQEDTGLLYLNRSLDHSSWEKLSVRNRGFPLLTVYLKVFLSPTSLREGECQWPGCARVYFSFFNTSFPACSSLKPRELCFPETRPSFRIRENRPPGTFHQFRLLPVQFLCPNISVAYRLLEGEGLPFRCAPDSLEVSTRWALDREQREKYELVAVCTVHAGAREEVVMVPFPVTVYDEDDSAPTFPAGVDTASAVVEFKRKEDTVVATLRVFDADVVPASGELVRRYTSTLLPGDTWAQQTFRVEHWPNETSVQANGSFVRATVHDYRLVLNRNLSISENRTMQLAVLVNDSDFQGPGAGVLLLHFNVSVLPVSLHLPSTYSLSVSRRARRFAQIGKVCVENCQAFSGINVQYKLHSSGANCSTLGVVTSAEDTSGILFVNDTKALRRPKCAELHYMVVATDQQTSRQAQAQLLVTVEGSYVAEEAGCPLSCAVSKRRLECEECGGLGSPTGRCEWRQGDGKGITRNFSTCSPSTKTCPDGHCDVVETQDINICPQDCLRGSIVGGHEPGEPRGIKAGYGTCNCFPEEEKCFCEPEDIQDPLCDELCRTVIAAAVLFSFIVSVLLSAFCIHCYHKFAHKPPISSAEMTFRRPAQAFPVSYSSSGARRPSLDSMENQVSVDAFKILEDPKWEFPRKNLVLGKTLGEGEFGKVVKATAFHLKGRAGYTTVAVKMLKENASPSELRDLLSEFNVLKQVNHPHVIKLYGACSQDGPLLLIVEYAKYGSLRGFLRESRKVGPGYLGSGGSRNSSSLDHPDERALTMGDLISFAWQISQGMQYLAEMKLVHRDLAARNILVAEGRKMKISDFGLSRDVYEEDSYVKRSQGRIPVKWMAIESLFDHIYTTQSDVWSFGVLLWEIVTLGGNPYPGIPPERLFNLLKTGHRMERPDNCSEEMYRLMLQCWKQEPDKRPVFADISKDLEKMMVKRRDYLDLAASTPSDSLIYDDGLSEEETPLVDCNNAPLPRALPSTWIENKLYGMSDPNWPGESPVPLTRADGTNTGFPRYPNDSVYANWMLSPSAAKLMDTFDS
Chain of JNK3 (P53779 whole entry): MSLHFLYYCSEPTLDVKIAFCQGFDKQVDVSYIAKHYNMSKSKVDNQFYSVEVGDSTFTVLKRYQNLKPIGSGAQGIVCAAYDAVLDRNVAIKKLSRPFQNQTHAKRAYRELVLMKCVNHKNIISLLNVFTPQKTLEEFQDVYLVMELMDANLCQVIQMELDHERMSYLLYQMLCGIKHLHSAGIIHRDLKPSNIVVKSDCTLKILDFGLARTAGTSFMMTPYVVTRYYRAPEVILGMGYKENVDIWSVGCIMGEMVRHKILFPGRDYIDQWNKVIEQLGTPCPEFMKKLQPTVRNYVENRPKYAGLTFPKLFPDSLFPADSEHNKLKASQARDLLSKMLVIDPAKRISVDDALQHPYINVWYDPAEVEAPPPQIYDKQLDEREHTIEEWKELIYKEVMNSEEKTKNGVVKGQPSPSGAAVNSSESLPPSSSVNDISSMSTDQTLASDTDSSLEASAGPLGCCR
Chain of CYP2C19 (P33261 whole entry): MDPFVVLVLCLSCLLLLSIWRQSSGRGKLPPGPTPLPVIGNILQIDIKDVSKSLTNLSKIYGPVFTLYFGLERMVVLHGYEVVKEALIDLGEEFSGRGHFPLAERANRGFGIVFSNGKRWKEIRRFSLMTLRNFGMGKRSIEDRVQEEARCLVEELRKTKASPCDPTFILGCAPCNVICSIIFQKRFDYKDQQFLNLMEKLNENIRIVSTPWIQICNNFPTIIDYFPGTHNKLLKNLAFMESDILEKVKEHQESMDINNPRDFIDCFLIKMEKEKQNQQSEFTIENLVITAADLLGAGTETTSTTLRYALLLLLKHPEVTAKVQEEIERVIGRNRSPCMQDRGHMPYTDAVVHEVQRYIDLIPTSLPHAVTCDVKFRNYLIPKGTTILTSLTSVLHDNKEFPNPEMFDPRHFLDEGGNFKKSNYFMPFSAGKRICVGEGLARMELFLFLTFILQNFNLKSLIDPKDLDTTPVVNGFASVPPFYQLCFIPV
Chain of TLK2 (Q86UE8 whole entry): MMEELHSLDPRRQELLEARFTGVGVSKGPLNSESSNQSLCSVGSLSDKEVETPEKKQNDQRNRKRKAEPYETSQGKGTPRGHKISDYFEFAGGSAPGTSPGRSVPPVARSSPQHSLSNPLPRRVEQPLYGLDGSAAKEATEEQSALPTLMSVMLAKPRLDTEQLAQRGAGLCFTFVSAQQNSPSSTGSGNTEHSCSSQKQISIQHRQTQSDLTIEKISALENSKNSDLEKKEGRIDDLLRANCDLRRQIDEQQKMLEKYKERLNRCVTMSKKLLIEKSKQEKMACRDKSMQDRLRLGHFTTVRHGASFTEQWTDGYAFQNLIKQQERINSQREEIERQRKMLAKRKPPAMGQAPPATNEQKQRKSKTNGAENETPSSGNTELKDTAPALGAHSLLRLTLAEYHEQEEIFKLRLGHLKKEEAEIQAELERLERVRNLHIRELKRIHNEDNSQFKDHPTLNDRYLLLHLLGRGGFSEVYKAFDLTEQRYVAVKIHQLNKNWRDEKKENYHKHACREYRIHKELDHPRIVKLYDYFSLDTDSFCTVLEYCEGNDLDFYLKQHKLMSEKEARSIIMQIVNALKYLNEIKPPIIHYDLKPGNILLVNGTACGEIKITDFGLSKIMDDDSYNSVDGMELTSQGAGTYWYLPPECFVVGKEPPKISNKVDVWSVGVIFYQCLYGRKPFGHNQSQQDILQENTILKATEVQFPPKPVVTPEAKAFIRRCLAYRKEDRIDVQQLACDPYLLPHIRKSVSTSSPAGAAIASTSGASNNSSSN
Chain of P38b/MAPK11 (Q15759 whole entry): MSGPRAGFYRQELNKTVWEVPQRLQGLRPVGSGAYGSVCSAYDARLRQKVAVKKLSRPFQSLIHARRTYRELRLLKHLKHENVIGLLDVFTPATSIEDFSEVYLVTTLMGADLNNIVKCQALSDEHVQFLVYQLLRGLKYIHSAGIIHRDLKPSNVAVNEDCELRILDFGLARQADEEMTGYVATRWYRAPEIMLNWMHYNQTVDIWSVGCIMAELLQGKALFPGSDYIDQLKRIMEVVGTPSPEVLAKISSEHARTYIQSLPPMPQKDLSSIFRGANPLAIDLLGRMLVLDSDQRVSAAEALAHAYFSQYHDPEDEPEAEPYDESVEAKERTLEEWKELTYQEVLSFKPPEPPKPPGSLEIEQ
T1 sequence (P10632 whole entry): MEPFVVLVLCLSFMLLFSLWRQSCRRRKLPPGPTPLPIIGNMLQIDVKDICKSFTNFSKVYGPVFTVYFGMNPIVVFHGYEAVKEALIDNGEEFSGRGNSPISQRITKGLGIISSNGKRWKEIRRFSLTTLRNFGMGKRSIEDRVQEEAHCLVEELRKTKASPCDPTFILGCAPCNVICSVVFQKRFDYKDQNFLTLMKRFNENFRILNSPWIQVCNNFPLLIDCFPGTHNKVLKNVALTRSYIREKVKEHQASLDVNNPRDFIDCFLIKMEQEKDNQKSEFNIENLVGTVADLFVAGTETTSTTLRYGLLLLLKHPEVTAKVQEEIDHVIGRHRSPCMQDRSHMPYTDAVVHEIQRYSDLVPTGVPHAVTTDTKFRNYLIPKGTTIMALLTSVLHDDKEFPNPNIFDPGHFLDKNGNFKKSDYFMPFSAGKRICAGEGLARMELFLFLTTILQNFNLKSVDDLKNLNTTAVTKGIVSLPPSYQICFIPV

Row | SMILES | % enzyme activity [1] | % enzyme activity [2] | IC50 [3] | % enzyme activity [4] | remaining activity at 1 µM [5] | IC50 [6] | % enzyme activity [7] | % enzyme activity [8] | % enzyme activity [9] | remaining activity at 1 µM [10] | % enzyme activity [11] | remaining activity at 1 µM [12]
1 | COc1cc(-c2cncc(-c3ccc(N4CCN(C)CC4)cc3)c2C)cc(F)c1C(N)=O [Compound 26a, 2-Fluoro-6-methoxy-4-(4-methyl-5-(4-(4-methylpiperazin-1-yl)phenyl)pyridin-3-yl)benzamide] | 89.07% | 93.66% | > 50 µM | 98.69% | 92.3% | > 50 µM | 95.61% | 87.51% | 98.59% | 90.4% | 94.34% | 58.7%
2 | COc1cc(-c2cncc(-c3ccc(N4C[C@@H](C)N(C)[C@@H](C)C4)cc3)c2C)cc(F)c1C(N)=O [Compound 26c, 2-Fluoro-6-methoxy-4-(4-methyl-5-(4-((3R,5S)-3,4,5-trimethylpiperazin-1-yl)phenyl)pyridin-3-yl)benzamide] | 95.40% | 100.92% | > 50 µM | 102.97% | 95.5% | > 50 µM | 89.84% | 94.75% | 100.30% | 96% | 93.64% | 74.7%
